Drawing on patent publication US10683311B2 (priority 2015, dated 2020), this text covers logP and chromatographic logP for 76 compounds.

The series is described as follows: log P by HPLC on reversed-phase column (C18), EEC Directive 79/831 Annex V.A8. The format is physicochemical. The note with it: for chromatographic logP: reversed-phase HPLC column (C18). The protocol: In table 1, the log P values were determined in accordance with EEC Directive 79/831 Annex V.A8 by HPLC (High Performance Liquid Chromatography) on a reversed-phase column (C18), using the methods described below:
Method A: temperature: 40° C.; mobile phases: 0.1% aqueous formic acid and acetonitrile; linear gradient from 10% acetonitrile to 95% acetonitrile;
Method B: temperature: 40° C.; mobile phases: 0.001 molar ammonium acetate solution in water and acetonitrile; linear gradient from 10% acetonitrile to 95% acetonitrile.
Calibration was carried out using unbranched alkan-2-ones (comprising 3 to 16 carbon atoms) with known log P values (determination of the log P values by the retention times using linear interpolation between two successive alkanones). lambda-max-values were determined using UV-spectra from 200 nm to 400 nm and the peak values of the chromatographic signals.

The mark [1] stands for this setting: Method A: 40° C., 0.1% aqueous formic acid and acetonitrile.

On to `Cc1nc2ccccc2nc1Oc1cccc(F)c1[Si](C)(C)O` [I.109], for which, under setting [1], the logP (commonly a log measure of how a compound divides between an organic and an aqueous phase) is 3.25. Take `Fc1cccc(Oc2cnc3c(F)c(F)ccc3c2)c1Br` [IIa.15, 3-(2-bromo-3-fluorophenoxy)-7,8-difluoroquinoline]: the chromatographic logP (commonly lipophilicity estimated from chromatographic retention) under setting [1] is 3.9. As to `Cc1nc2ccccc2cc1Oc1ccccc1[Si](C)(C)O` [I.048], the logP under setting [1] amounted to 2.16. Regarding `CCOc1nc2ccccc2cc1Oc1cccc(F)c1[Si](C)(C)C` [I.060], under setting [1], the logP is 6.79. `Cc1cccc(Br)c1Oc1nc2ccc(F)c(F)c2nc1C` [IIb.03] showed a logP (logP Method A) of 4.80.

In the case of `C[Si](C)(c1cccs1)c1ccccc1Cc1cnc2ccccc2c1` [I.015], under setting [1], the logP is reported as 4.04. Take `C[Si](C)(CCl)c1c(F)cccc1Oc1cnc2ccccc2c1` [I.007]: the logP under setting [1] is recorded as 5.00.

The compound `C[Si](C)(C)c1c(F)cccc1Oc1cnc2ccnn2c1` [I.122] gave a logP under setting [1] of 4.23.

`Cc1nc2ccccc2cc1Nc1ccc(F)cc1[Si](C)(C)C` [I.055] had a logP under setting [1] of 2.63. Under setting [1], `CC(C)(C)[Si](C)(C)c1ccccc1Oc1cnc2ccccc2n1` [I.072] came in with a lipophilicity (logP) of 6.30. On to `Cc1nc2c(F)c(F)ccc2cc1Oc1ccccc1N` [IVa.05, 2-[(7,8-difluoro-2-methylquinolin-3-yl)oxy]aniline], for which the chromatographic logP came to 2.99 under setting [1] and 2.99 (logP Method A). Take `Cc1nc2c(F)c(F)ccc2cc1Oc1cc([N+](=O)[O-])ccc1[Si](C)(C)C` [I.031]: the logP under setting [1] stood at 5.34. `Cc1nc2c(F)c(F)ccc2cc1Oc1cc(N)ccc1[Si](C)(C)C` [I.029]: the logP under setting [1] is 4.59. Compound `Cc1nc2c(F)c(F)ccc2cc1Cc1ccccc1[Si](C)(C)C` [I.040] yielded a logP under setting [1] of 5.54. As for `Cc1nc2ccccc2nc1Oc1cccc(F)c1[Si](C)(C)c1cccs1` [I.113], under setting [1], the logP amounted to 5.51. Under setting [1], `C[Si](C)(O)c1c(F)cccc1Oc1cnc2ccccc2c1` [I.003] displayed a logP of 2.90.

As to `Cc1nc2c(F)c(F)ccc2nc1Oc1c(F)cccc1[Si](C)(C)O` [I.089], the logP under setting [1] stood at 3.62. Under “logP Method A”, `CSc1nc2ccccc2cc1Oc1cccc(F)c1` [VIIa.03] gave a logP of 4.92. Compound `OCc1cccc(Oc2cnc3ccccc3c2)c1I` [II.02A] registered a chromatographic logP (logP Method A) of 2.59.

With `Fc1cccc(Oc2cc3ccccc3nc2Cl)c1` [VIIa.01, 2-chloro-3-(3-fluorophenoxy)quinoline], the chromatographic logP was 3.99 under setting [1] and 3.99 (logP Method A). The compound `Cc1nc2c(F)c(F)ccc2nc1Oc1cccc(Cl)c1[Si](C)(C)O` [I.090] gave a logP under setting [1] of 3.94. Under setting [1], `C[Si](C)(O)c1ccccc1Oc1cnc2c(F)c(F)ccc2n1` [I.081] registered a logP of 3.23. The compound `Cc1nc2c(F)c(F)ccc2nc1Oc1ccccc1[Si](C)(C)O` [I.087] registered a logP under setting [1] of 3.35. On the same count and under the same terms, in the case of `Cc1nc2ccccc2cc1Oc1ccc(Cl)cc1[Si](C)(C)C` [I.134] it was 5.68. The compound `Fc1cccc(Oc2cnc3ccccc3c2)c1I` [IIa.01, 3-(3-fluoro-2-iodophenoxy)quinoline] displayed a chromatographic logP under setting [1] of 3.71.

As for `Fc1ccc(Oc2cnc3c(Cl)cccc3c2)c(Cl)c1` [IIa.23, 8-chloro-3-(2-chloro-4-fluorophenoxy)quinoline], under setting [1], the chromatographic logP was 4.11.

Consider `Cc1nc2c(F)c(F)ccc2cc1Oc1cccc(F)c1[Si](C)(C)O` [I.025], for which the logP under setting [1] stood at 3.55. `Cc1nc2c(F)c(F)ccc2nc1Oc1c(Cl)cccc1[Si](C)(C)C` [I.106] came in with a log partition coefficient (logP) under setting [1] of 6.07. Turning to `Cc1nc2c(F)c(F)ccc2nc1Oc1ccc(Cl)cc1[Si](C)(C)C` [I.101], the logP under setting [1] turned out to be 6.11. With `Brc1ccccc1Oc1cnc2ccccc2c1` [IIa.03, 3-(2-bromophenoxy)quinoline], under setting [1], the chromatographic logP is 3.47.

`C[Si](C)(C)c1ccccc1Nc1cnc2ccccc2c1` [I.011] displayed a logP under setting [1] of 3.46. Still for that read-out and setting: to `Cc1nc2c(F)c(F)ccc2cc1Oc1cccc(F)c1[Si](C)(C)c1cccs1` [I.030] belongs 5.65. Under setting [1], `Cc1nc2c(F)c(F)ccc2cc1Oc1ccccc1Br` [IIa.07, 3-(2-bromophenoxy)-7,8-difluoro-2-methylquinoline] came in with a chromatographic logP of 4.25. In the case of `CC[Si](C)(C)c1c(F)cccc1Oc1cc2ccccc2[n+]([O-])c1C` [I.057], the logP under setting [1] was found to be 4.54.

For the compound `CC[Si](CC)(CC)c1c(O)cccc1F` [IX.02A], the chromatographic logP (logP Method A) was found to be 4.69. With `Cc1nc2ccccc2cc1Oc1cccc(F)c1Br` [IIa.18, 3-(2-bromo-3-fluorophenoxy)-2-methylquinoline], the chromatographic logP under setting [1] came out at 3.58. In turn, `C[Si](C)(O)c1cc(F)ccc1Oc1cnc2c(Cl)cccc2c1` [I.018] showed a logP under setting [1] of 3.50. Compound `Cc1nc2c(F)c(F)ccc2cc1Oc1cc(F)ccc1Br` [IIa.10, 3-(2-bromo-5-fluorophenoxy)-7,8-difluoro-2-methylquinoline] gave a chromatographic logP under setting [1] of 4.34. With `C[Si](C)(C)c1c(F)cccc1Oc1cc2ccccc2nc1-c1ccccc1` [I.045], the logP under setting [1] stood at 6.40. As to `[O-][S+](c1cccc(F)c1)c1cnc2ccccc2c1` (stereo not drawn) [VII.04A], the chromatographic logP (logP Method A) is 2.1. On the same count and under the same terms, in the case of `Cc1nc2ccccc2cc1Oc1cccc(CCCl)c1Br` [II.08A] it was 3.99. Where the note is “logP Method A”, `COc1cccc(Oc2nc3ccc(F)c(F)c3nc2C)c1Br` [IIb.13] displayed a logP of 4.19. Turning to `Cc1nc2c(F)c(F)ccc2nc1Oc1ccc(F)cc1[Si](C)(C)O` [I.098], the logP under setting [1] is reported as 3.63. For the compound `COc1ccc([Si](C)(C)c2c(F)cccc2Oc2nc3ccccc3nc2C)cc1` [I.114], the logP under setting [1] was found to be 5.35. `CC[Si](C)(C)c1ccccc1Oc1cnc2ccccc2n1` [I.076] had a logP under setting [1] of 5.48. This logP and that of the compound before are within 0.2 log units of each other. In the case of `COc1cccc(Oc2cc3ccc(F)c(F)c3nc2C)c1Br` [IIa.14, 3-(2-bromo-3-methoxyphenoxy)-7,8-difluoro-2-methylquinoline], the chromatographic logP under setting [1] stood at 4.11. Under “logP Method A”, `Cc1nc2c(F)c(F)ccc2nc1Oc1cccc(F)c1Br` [IIb.16] returned a lipophilicity (logP) of 4.44. Under setting [1], `Ic1ccccc1Oc1cnc2ccccc2c1` [IIa.02, 3-(2-iodophenoxy)quinoline] gave a chromatographic logP of 3.71. Under setting [1], `Cc1nc2ccccc2cc1Oc1ccc(C2CC2)cc1[Si](C)(C)C` [I.136] yielded a logP of 5.68. In the case of `C[Si](C)(C)c1c(F)cccc1Oc1cnc2ccccc2n1` [I.069], the log partition coefficient (logP) under setting [1] was 5.22. Take `Cc1nc2ccccc2cc1Oc1ccccc1N` [IVa.07]: under “logP Method A”, the logP is 1.66.

In the case of `Cc1nc2ccccc2cc1Oc1cccc(F)c1` [VIIa.04], the logP (logP Method A) came out at 2.96.

Under setting [1], `CCN(c1ccccc1[Si](C)(C)C)c1cc2ccccc2nc1C` [I.056] showed a logP of 3.16.

`Fc1ccc(Oc2cnc3c(Cl)cccc3c2)c(Br)c1` [IIa.11, 3-(2-bromo-4-fluorophenoxy)-8-chloroquinoline]: the chromatographic logP under setting [1] is 4.18. In the case of `C[Si](C)(C)c1c(F)cccc1Oc1cnc2sccc2c1` [I.120], the logP under setting [1] is recorded as 5.45.

As for `C=Cc1nc2ccccc2cc1Oc1cccc(F)c1[Si](C)(C)C` [I.044], the log partition coefficient (logP) under setting [1] was 6.30. Under setting [1], `C[Si](C)(F)c1c(F)cccc1Oc1cnc2c(F)c(F)ccc2n1` [I.083] showed a log partition coefficient (logP) of 5.01. Compound `C[Si](C)(c1ccc(Oc2ccccc2)cc1)c1ccccc1Cc1cnc2ccccc2c1` [I.016] had a logP under setting [1] of 5.62. Under setting [1], `Cc1nc2c(F)c(F)ccc2nc1Oc1ccc(F)cc1[Si](C)(C)C` [I.100] returned a logP of 5.57. `Cc1nc2ccccc2cc1Oc1ccccc1Br` [IIa.08, 3-(2-bromophenoxy)-2-methylquinoline]: the chromatographic logP under setting [1] was determined as 3.96.

With `Cc1nc2c(F)c(F)ccc2cc1Oc1cccc(OC(F)(F)F)c1[Si](C)(C)O` [I.036], under setting [1], the lipophilicity (logP) turned out to be 4.20.

In turn, `Fc1ccc2cc(Oc3ccccc3Br)cnc2c1F` [IIa.06, 3-(2-bromophenoxy)-7,8-difluoroquinoline] showed a chromatographic logP under setting [1] of 3.92. For the setting “logP Method A”, `O=Cc1cccc(Oc2cnc3ccccc3c2)c1I` [II.01A] had a chromatographic logP of 3.29. `Cc1nc2ccccc2cc1Nc1ccccc1[Si](C)(C)C` [I.054] had a logP under setting [1] of 2.46.

In turn, `Cc1nc2c(F)c(F)ccc2cc1Oc1cccc(Cl)c1Br` [IIa.20, 3-(2-bromo-3-chlorophenoxy)-7,8-difluoro-2-methylquinoline] gave a chromatographic logP under setting [1] of 4.72. Turning to `Cc1c(Cc2ccccc2[Si](C)(C)C)cnc2ccccc12` [I.130], the logP under setting [1] turned out to be 3.19. Where the note is “logP Method A”, `O=[N+]([O-])c1ccccc1Oc1cnc2ccccc2c1` [Va.07] showed a log partition coefficient (logP) of 1.62. On to `C[Si](C)(C)c1c(F)cccc1Oc1cnc2ccsc2c1` [I.118], for which the log partition coefficient (logP) under setting [1] is on record as 5.22.

On to `Cc1nc2ccccc2cc1Oc1ccc(-c2ccccc2)cc1[Si](C)(C)C` [I.135], for which, under setting [1], the log partition coefficient (logP) is recorded as 6.27.

The compound `CC1(C)OB(Cc2ccccc2[Si](C)(C)C)OC1(C)C` [XIIa.01] registered a logP (logP Method A) of 5.68. As to `Cc1nc2c(F)c(F)ccc2nc1Oc1cccc(OC(F)(F)F)c1[Si](C)(C)O` [I.095], under setting [1], the lipophilicity (logP) came to 4.34. The compound `Cc1nc2c(F)c(F)ccc2cc1Oc1cccc(F)c1[Si](C)(C)c1ccccc1` [I.028] came in with a logP under setting [1] of 6.01.

Under setting [1], `Cc1nc2ccccc2cc1Oc1cccc(Cl)c1Br` [IIa.21, 3-(2-bromo-3-chlorophenoxy)-2-methylquinoline] came in with a chromatographic logP of 3.99. For `O=C(c1cccc(F)c1)c1cnc2ccccc2c1` [VII.02A], the chromatographic logP (logP Method A) worked out at 2.73.

Take `Nc1ccccc1Oc1cnc2c(F)c(F)ccc2c1` [IVa.03]: for the setting “logP Method A”, the logP worked out at 2.71. The compound `Cc1nc2ccccc2nc1Oc1ccccc1[Si](C)(C)C` [I.110] gave a logP under setting [1] of 5.31.
